Measured values reported in patent EP4545542A1, “TRANSITION METAL CLUSTER COMPOUNDS FOR ELECTROCHEMICAL APPLICATIONS” (Litricity GmbH, priority 2023, dated 2025).

Test: Solubility by the shake-flask method
[1] = Table 2: Solubility test of Fe28 clusters (acid linkers; Fe28+Tartaric acid with Ba, Ca, Mg counterions), conditions not given separately
[2] = shake-flask method, room temperature (25 °C, pH = 5.7 in 0.3 M of Na2SO4), Table 1, influence of the cation

Procedure: Solubility was determined by the shake-flask method (table 1) at room temperature (25 °C, pH = 5.7 in 0.3 M of Na2SO4).

Solubility [1] | Solubility [2] | Substance
1 mM |  | Mq10[Fe28(µ3-O)8(tart)16(OAc)24] ×H2O [Mg10Fe28]
 | 48 mM | Li2K18[Fe28(µ3-O)8(tart)16(OAc)24] ×H2O [Li2K18Fe28]
 | 83 mM | Li2Na18[Fe28(µ3-O)8(tart)16(OAc)24] ×H2O [Li2Na18Fe28]
 | 70 mM | Na20[Fe28(µ3-O)8(tart)16(OAc)24] ×H2O [Na20Fe28]

The remaining lines, values behind:

Substance | Solubility [1] | Solubility [2]
Ba10[Fe28(µ3-O)8(tart)16(OAc)24] ×H2O [Ba10Fe28] | 84 mM | 
K2Li18[Fe28(µ3-O)8(tart)16(OAc)24] ×H2O [Cluster K2Li28Fe28] |  | 88 mM
K20[Fe28(µ3-O)8(tart)16(OAc)24] ×H2O [Cluster K20Fe28] |  | 50 mM
Ca10[Fe28(µ3-O)8(tart)16(OAc)24] ×H2O [Ca10Fe28] | 2 mM | 
